Experimental data as given in article PMC10301393 (Viruses, 2023).
In brackets after ≈: the same amount, converted by molar mass.

Tests used:
[1] = test system: SARS-CoV; conditions: Vero E6 cells; cited from earlier work
[2] = test system: SARS-CoV 3CL protease (3CLpro); conditions: cited from earlier work
[3] = test system: human coronavirus 229E (HCoV 229E); test: Anti-HCoV 229E assay: reduction in viral titer; type: cell-based, human coronavirus 229E in MRC-5 human lung fibroblast; conditions: MRC-5 cells, compound at 3 μg/mL, 72 h, Figure 3 (n = 1)
[4] = test system: MRC-5 cells; test: Cell morphology in photonic microscope observation; type: cell-based, human; conditions: antiviral assay
[5] = test system: human coronavirus 229E (HCoV 229E); test: Anti-HCoV 229E assay: reduction in virus-induced cytopathogenic effect; type: cell-based, human coronavirus 229E in MRC-5 human lung fibroblast; conditions: MRC-5 cells, compound at 3 μg/mL (16: 6.7 μM), MOIs 0.01–0.001, 72 h, Figure 4 (n = 3)
[6] = test system: SARS-CoV-2; design: method as in earlier work; conditions: cited from earlier work

Compound: CC(C)c1cc2c(cc1O)[C@@]1(C)CCCC(C)(C)[C@@H]1CC2 [Compound 1, (+)-ferruginol]
- EC50 [1]: 1.39 µM
- inhibition for SARS-CoV 3CL protease ([2]; below 100 μM): did not show inhibition
- IC50 [2]: 49.6 µM

Compound: CC(=O)Oc1cc2c(cc1C(C)C)C=C[C@H]1C(C)(C)[C@@H](OC(C)=O)CC[C@]21C [Compound 2, 3β,12-diacetoxyabieta-6,8,11,13-tetraene, reference compound]
- EC50 [1]: 1.57 µM

Compound: CC(C)c1cc2c(cc1O)[C@@]1(C)CCC[C@@](C)(CN3C(=O)c4ccccc4C3=O)[C@@H]1CC2 [Compound 3, 18-(phthalimid-2-yl) ferruginol]
- reduction in the viral titer [3]: important reductions in the viral titer
- modification of the cell morphology [4]: induced modification of the cell morphology

Compound: C=C(CO)c1ccc2c(c1)CC[C@H]1[C@@](C)(C(=O)O)CCC[C@]21C [Compound 7, jiadifenoic acid C, reference compound]
- reduction in the viral-induced cytopathogenic effect (CPE) [5]: no activity

Compound: CC(C)c1cc2c(cc1O)[C@@]1(C)CCC[C@@](C)(CO)[C@@H]1CC2 [Compound 12]
- reduction in the viral titer [3]: ~0.5 log

Compound: CC(C)c1cc2c(cc1O)[C@@]1(C)CCC[C@@](C)(CN)[C@@H]1CC2 [Compound 14, 12-hydroxydehydroabietylamine]
- reduction in the viral-induced cytopathogenic effect (CPE) [5]: reduce the cytopathogenic effect

Compound: CC(C)c1cc2c(cc1O)[C@@]1(C)CCC[C@@](C)(CN3C(=O)c4cccc(F)c4C3=O)[C@@H]1CC2 [Compound 15, 12-Hydroxy-N,N-(3-fluorophthaloyl)dehydroabietylamine]
- modification of the cell morphology [4]: induced modification of the cell morphology

Compound: CC(C)c1cc2c(cc1O)[C@@]1(C)CCC[C@@](C)(CN3C(=O)c4ccc(F)cc4C3=O)[C@@H]1CC2 [Compound 16, 12-Hydroxy-N,N-(4-fluorophthaloyl)dehydroabietylamine]
- reduction in the viral titer [3]: approximately 2 log

Compound: Cc1coc2c1C(=O)C(=O)c1c-2ccc2c1CCCC2(C)C [tanshinone IIA]
- IC50 (anti-SARS-CoV-2 activity) [6]: 4.08 µg/mL (≈ 13.9 µM)
